According to US20220256821A1, “ZEBRAFISH DELETION AND COMPOUND MUTANTS AND USES THEREOF” (The General Hospital Corporation, priority 2019, published 2022):

What was measured:
Format in all cases: in vivo, human
[1] = tested on: OVCAR-5 (EPCAM+) cancer cells; assay: BiTE therapy of engrafted tumor in zebrafish; details: rag2null/null; Il2rga-/- zebrafish, co-administered with CD8+ T cells after 7 days of engraftment
Text: (§1) To investigate if the rag2^null/null; Il2rga−/− animals can be used in the context of evaluating BiTE therapy efficiency, GFP-expressing OVCAR-5 (EPCAM+) cancer cells were first engrafted into mutant zebrafish. Following 7 days of engraftment, CD8+ T cells were co-administered with a control EPCAM antibody, a non-specific CD19 targeting BiTE (blinatumomab), or an EPCAM targeting BiTE (solitomab). […] In a similar experiment, animals engrafted with CD19-expressing leukemia cell line (K562-CD19) cells were killed off by coadministration of CD8+ T cells and blinatumomab (FIG. 4A-FIG. 4F).
(§2) Human cancer cells were grown to 90% confluence in a T75 cell culture flask, trypsinized, counted and resuspended at 2.5×10^7 cells/ml in Matrigel. Clondronate liposomes were added to the injection mix to inhibit early macrophage ingestion of engrafted cells over the first 7 days. […] Human CD8+ T cells, CMV-primed T cells and Car T cells were grown in 24 well plate at a density of 1×10^6 cells/ml, harvested, counted and resuspended at 5×10^7 cells/ml in T cell media. […] Cancer cell engraftment was assessed using epifluorescence whole animal microscopy (Olympus MVX10), with average GFP intensity measured using ImageJ. Growth was measured in relation to GFP intensity observed immediately after IP injection or by individual count of GFP+ cells over time. […]

[2] = tested on: CD19-expressing leukemia cell line (K562-CD19); assay: BiTE therapy of engrafted leukemia cells in zebrafish; details: rag2null/null; Il2rga-/- zebrafish, coadministration of CD8+ T cells
Text: as §1, §2

[3] = tested on: OVCAR-5 (zipCaspase3) cells; assay: Live confocal imaging of BiTE-induced apoptosis with zipCaspase 3 reporter in zebrafish; details: administered with T cells, live confocal microscopy
Procedure: Next, it was investigated whether the rag2^null/null; Il2rga−/− zebrafish are able to be used to directly visualize tumor cell killing at single cell resolution following BiTE therapy in vivo. To do so, OVCAR-5 ovarian cancer cells were engineered to express a zipCaspase 3 construct, where live tumor cells constitutively express mCherry, but express zipGFP only when undergoing apoptosis (FIG. 7A-FIG. 7E).
Imaging of peri-ocular transplanted cells was performed using an inverted LSM 710 confocal microscope. Engrafted zebrafish were anesthetized using […] tricaine and placed into a 12-mm glass-bottom dish for imaging. Serial z-stack imaging was carried out using a 10× objective (NA 0.45). In vivo direct visualization of Car T-cell interaction with tumor cells, cell apoptosis with zipGFP caspase 3 reporter, and visualization of therapy target specificity was carried out by serial z-stack imaging using 405 nm (emission […]), 488 nm (emission=493-586 nm) and 546 nm laser (emission=575-703 nm). Animals were imaged at 6 dpt prior to administration of immunotherapy. […] Quantification of distance between tumor cells and Car T-cells was analysed using distance between surface and spot plugin. Images were manually annotated from Imaris files (n=100 cells per timepoint analyzed from n≥3 animals) and quantified using the Fisher's Exact Test or T-test.

Substance	overall tumor growth [1]	killing of engrafted cells [2]	cell apoptosis quantified in vivo (zipGFP) [3]
blinatumomab	did not alter overall OVCAR-5 tumor growth	killed off	
solitomab	undergo cell killing and suppress tumor growth		significant induction of cell apoptosis
